Measurements: ChEMBL document CHEMBL1949604, “Drug-like properties: guiding principles for the design of natural product libraries” (J Nat Prod, 2012)

Key:
[1] = test system: Trypanosoma brucei brucei; assay: Antitrypanosomal activity against Trypanosoma brucei brucei; format: functional, organism-based
[2] = test system: Trypanosoma brucei brucei; assay: Antitrypanosomal activity against Trypanosoma brucei brucei at 80 uM; format: functional

SMILES	IC50 [1]	inhibition at 80 µM [2]
c1ccc2c(c1)nc1c3nc4ccccc4c4ccnc(c5nccc2c51)c43 [EILATIN]	1330 nM	
c1ccc2c(c1)Nc1cc3cccnc3c3nccc-2c13	77 nM	
COC1=C(Br)[C@H](O)[C@@]2(C=C1Br)CC(C(=O)NCCCn1cnc(CCNC(=O)C3=NO[C@]4(C=C(Br)C(OC)=C(Br)[C@@H]4O)C3)c1)=NO2 [PSEUDOCERATINAZOLE A]		80%
O=C1c2cccnc2-c2nccc3c2c1nc1ccccc13 [ASCIDIDEMIN]	32 nM	
